This note sets out measurements from patent US20220280594A1, “APPLICATION OF POLYPEPTIDE OR DERIVATIVE THEREOF” (CHENGDU HUITAI BIOMEDICINE CO., LTD., priority 2019, published 2022).

Holding throughout (assay type): cell-based
The test system of experiment [1] is human oral epidermoid carcinoma KB cells. The experiment is described as follows: scratch assay, migration of KB cells. The following applies: 10 μM, 48 hours, control group 54.03 ± 4.21. A digest of the protocol: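 Monolayers of KB cells were scratched, washed with PBS, then cultured 48 hours in 2% FBS medium containing test polypeptide (10 μM) or PBS control, in triplicate wells. From images, migration rate (%) = (original − current scratch width)/original width × 100.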

The test system of experiment [2] is human prostate cancer cells (22RV1). The experiment is described as follows: scratch assay, migration of 22RV1 cells. Particulars: 22RV1, 10 μM, 48 hours; control group 25.41 ± 5.01. A digest of the protocol: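 22RV1 monolayers (seeded 1-2×10^5 cells/well) were scratched, washed, then given 2% FBS medium with 10 μM polypeptide or PBS, triplicate wells, for 48 h. Migration rate (%) = (original − current scratch width)/original width ×100, from ≥3 images per well.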

The subject of experiment [3] is human thyroid cancer cells (FRO). In words: scratch assay, migration of FRO cells. The following applies: 10 μM, 48 hours, control group 60.34 ± 8.32. The method, boiled down: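 FRO monolayers were scratched, washed, and cultured 48 h in 2% FBS medium with polypeptide derivatives at 10 μM or PBS control, three wells per group. Migration rate (%) = (original − current scratch width)/original width × 100, measured from images.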

For experiment [4], the system named is human liver adenocarcinoma cells (SK-HEP-1). In words: transwell invasion assay, SK-HEP-1 cells. The following applies: SK-HEP-1 transwell invasion, 10 μM, 24 hours; control group 767 ± 91. The method, boiled down: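 Serum-free SK-HEP-1 cells were seeded in matrigel-coated upper chambers over complete medium. After 4-5 h, peptide was added to the upper chamber at 10 μM final. Following 24 h at 37° C., invaded cells were fixed, crystal violet-stained, imaged and counted.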

The test system of experiment [5] is human pharyngeal squamous-cell carcinoma cells (Fadu). In words: scratch assay, migration of Fadu cells. The following applies: 10 μM, 48 hours, control group 28.76 ± 4.08. The method, boiled down:
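Confluent Fadu monolayers scratched, then cultured 48 h with 10 μM polypeptide in medium with 2% FBS; PBS control, triplicate wells. Migration rate (%) = (original − current scratch width)/original width × 100, from ≥3 images per well.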

For experiment [6], the system named is human liver adenocarcinoma cells (SK-HEP-1). In words: transwell migration assay, SK-HEP-1 cells. Particulars: SK-HEP-1 transwell migration, 10 μM, 24 hours; control group 1 782 ± 108, control group 2 768 ± 86. The method, boiled down:
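SK-HEP-1 cells in serum-free medium seeded in upper transwell chamber (2-3×10^5 cells/mL) over complete medium; after 4-5 h at 37 °C, 5% CO2, peptide added at 10 μM final in upper chamber. After 24 h, migrated cells fixed in methanol, crystal-violet stained, imaged and counted.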

Experiment [7] has as its system human lung cancer cells (95D). In words: scratch assay, migration of 95D cells. Particulars: 10 μM, 48 hours, control group 55.3 ± 3.19. The method, boiled down:
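Confluent 95D monolayers were scratched, washed with PBS and cultured 48 h in 2% FBS medium containing peptide (10 μM) or PBS control, in triplicate wells. Scratch width was measured on images; migration rate (%) = (original width − current width)/original width × 100.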

The subject of experiment [8] is human lung squamous carcinoma cells (NCI-H226). In words: scratch assay, migration of NCI-H226 cells. The following applies: NCI-H226, 10 μM, 48 hours; control group 65.31 ± 3.19. A digest of the protocol: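 A straight scratch was made in confluent NCI-H226 monolayers (1-2×10^5 cells/well). Cells were then kept 48 h in 2% FBS medium with 10 μM polypeptide or PBS control, triplicate wells. Migration rate (%) = (original − current scratch width)/original width ×100, from imaged scratch widths.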

Ends that are not written are not given here. PEG = not defined here

As to “N25: SEQ ID NO: 1 with substitution N18R and addition of two amino acids at the carboxyl terminal (YRVRFLAKENVTQDAEDRCT)”, the “Migration rate (%) (mean ± SD, P)” value in experiment [1] was 18.32 ± 2.63,** %; in experiment [2], 13.02 ± 2.27,* %; in experiment [3] it was 14.31 ± 2.47,*** %; in experiment [5], 9.89 ± 2.47,*** %; in experiment [7], 40.70 ± 3.25,** %; in experiment [8], 15.03 ± 8.16,*** %. The “Number of cells (mean ± SD, P), invaded cells” value in experiment [4] was 411 ± 30,***. Besides, the “Number of cells (mean ± SD, P), migrated cells” value in experiment [6] is listed as 58 ± 15,****.

In the case of “N26: SEQ ID NO: 1 with substitution A15R, addition of one amino acid at the amino terminal and one at the carboxyl terminal (FYRVRFLAKENVTQDREDNC)”, the “Migration rate (%) (mean ± SD, P)” value in experiment [1] was 23.71 ± 4.86,* %; in experiment [2] it was 11.42 ± 2.08,* %; in experiment [3], 11.21 ± 4.01,*** %; in experiment [5] it was 13.70 ± 4.57,** %; in experiment [7], 37.20 ± 5.94,** %; in experiment [8], 18.41 ± 7.90,*** %. In addition, the “Number of cells (mean ± SD, P), invaded cells” value in experiment [4] was 371 ± 27,***. In addition, the “Number of cells (mean ± SD, P), migrated cells” value in experiment [6] was 68 ± 19,****.

Consider “N27: SEQ ID NO: 1 with addition of one amino acid at the carboxyl terminal and PEG modification at the carboxyl terminal (YRVRFLAKENVTQDAEDNC-{PEG}; reading uncertain)”, for which the “Migration rate (%) (mean ± SD, P)” value in experiment [1] is recorded as 12.53 ± 3.88,** %; in experiment [2] it was 14.76 ± 2.79,* %; in experiment [3] it was 13.42 ± 3.35,*** %; in experiment [5] it was 15.99 ± 3.96,* %; in experiment [7], 37.20 ± 6.23,* %; in experiment [8], 31.19 ± 5.96,*** %. Besides, the “Number of cells (mean ± SD, P), invaded cells” value in experiment [4] is 369 ± 52,***. For the same substance, the “Number of cells (mean ± SD, P), migrated cells” value in experiment [6] is reported as 469 ± 56,**.

Turning to “N28: SEQ ID NO: 1 with deletion of positions 1-2 and 18 and PEG modification at the amino terminal ({PEG}-VRFLAKENVTQDAED; reading uncertain)”, the “Migration rate (%) (mean ± SD, P)” value is given as 11.24 ± 3.52,*** % in experiment [1]; 15.63 ± 2.59,* % in experiment [2]; 8.77 ± 2.85,*** % in experiment [3]; 15.23 ± 3.59,* % in experiment [5]; 28.08 ± 3.38,*** % in experiment [7]; 18.08 ± 7.38,*** % in experiment [8]. The “Number of cells (mean ± SD, P), invaded cells” value in experiment [4] was 214 ± 31,****. Further, the “Number of cells (mean ± SD, P), migrated cells” value in experiment [6] is recorded as 51 ± 25,****.

Turning to “N29: SEQ ID NO: 1 with deletion of positions 1-5 and 15-18 and PEG modification at the amino terminal ({PEG}-LAKENVTQD; reading uncertain)”, the “Migration rate (%) (mean ± SD, P)” value is on record as 8.07 ± 1.79,*** % in experiment [1]; 9.99 ± 3.89,* % in experiment [2]; 5.12 ± 2.67,*** % in experiment [3]; 12.27 ± 2.23,** % in experiment [5]; 30.30 ± 4.81,** % in experiment [7]; 40.30 ± 4.81,** % in experiment [8]. In addition, the “Number of cells (mean ± SD, P), invaded cells” value in experiment [4] was 322 ± 56,***. Further, in experiment [6], the “Number of cells (mean ± SD, P), migrated cells” value is given as 254 ± 14,****.

Take “N30: SEQ ID NO: 1 with deletion of positions 1-5 and 15-18 and PEG modification at the carboxyl terminal (LAKENVTQD-{PEG}; reading uncertain)”: the “Migration rate (%) (mean ± SD, P)” value is on record as 8.75 ± 3.35,*** % in experiment [1]; 10.82 ± 2.55,* % in experiment [2]; 5.16 ± 1.67,*** % in experiment [3]; 13.85 ± 3.59,** % in experiment [5]; 33.91 ± 3.36,** % in experiment [7]; 13.91 ± 7.36,*** % in experiment [8]. In addition, in experiment [4], the “Number of cells (mean ± SD, P), invaded cells” value was 85 ± 20,****. Besides, the “Number of cells (mean ± SD, P), migrated cells” value in experiment [6] is on record as 156 ± 22,****.

With “N31: SEQ ID NO: 1 with deletion of positions 3, 4, 11 and 15-18 and PEG modification at the carboxyl terminal (YRFLAKENTQD-{PEG}; reading uncertain)”, the “Migration rate (%) (mean ± SD, P)” value is recorded as 7.17 ± 1.67,*** % in experiment [1]; 12.40 ± 2.24,* % in experiment [2]; 9.77 ± 1.96,*** % in experiment [3]; 12.13 ± 5.10,** % in experiment [5]; 25.70 ± 3.17,** % in experiment [7]; 15.70 ± 8.17,*** % in experiment [8]. Moreover, the “Number of cells (mean ± SD, P), invaded cells” value in experiment [4] was 269 ± 17,****. Also, the “Number of cells (mean ± SD, P), migrated cells” value in experiment [6] is on record as 90 ± 6,****.

With “N32: SEQ ID NO: 1 with deletion of positions 1-3, addition of one amino acid and PEG modification at the carboxyl terminal (RFLAKENVTQDAEDNC-{PEG}; reading uncertain)”, the “Migration rate (%) (mean ± SD, P)” value in experiment [1] is given as 11.70 ± 2.95,*** %; in experiment [2], 8.68 ± 1.66,** %; in experiment [3], 7.83 ± 2.06,*** %; in experiment [5] it was 14.63 ± 4.96,* %; in experiment [7], 29.47 ± 3.42,** %; in experiment [8], 19.47 ± 6.42,*** %. Also, the “Number of cells (mean ± SD, P), invaded cells” value in experiment [4] was 252 ± 7,****. Further, the “Number of cells (mean ± SD, P), migrated cells” value in experiment [6] is listed as 201 ± 13,****.

As to “N33: SEQ ID NO: 1 with deletion of positions 1-5, addition of one amino acid and PEG modification at the carboxyl terminal (LAKENVTQDAEDNC-{PEG}; reading uncertain)”, the “Migration rate (%) (mean ± SD, P)” value in experiment [1] is given as 6.01 ± 1.62,*** %; in experiment [2], 10.03 ± 2.15,* %; in experiment [3], 7.03 ± 2.02,*** %; in experiment [5] it was 10.28 ± 2.06,** %; in experiment [7], 30.73 ± 5.87,** %; in experiment [8], 40.73 ± 4.87,** %. Further, in experiment [4], the “Number of cells (mean ± SD, P), invaded cells” value was 197 ± 32,****. Moreover, the “Number of cells (mean ± SD, P), migrated cells” value in experiment [6] was 354 ± 31,***.

As for “N34: SEQ ID NO: 1 with A15R, addition of one amino acid at the carboxyl terminal, PEG modification at the amino terminal ({PEG}-YRVRFLAKENVTQDREDNC; reading uncertain)”, the “Migration rate (%) (mean ± SD, P)” value was 12.88 ± 1.71,*** % in experiment [1]; 5.00 ± 2.29,** % in experiment [2]; 8.74 ± 3.40,*** % in experiment [3]; 7.38 ± 2.85,*** % in experiment [5]; 13.53 ± 4.35,*** % in experiment [7]; 36.53 ± 4.35,** % in experiment [8]. Also, in experiment [4], the “Number of cells (mean ± SD, P), invaded cells” value was 187 ± 38,****. Further, the “Number of cells (mean ± SD, P), migrated cells” value in experiment [6] is reported as 260 ± 32,****.
